Results: ChEMBL document CHEMBL6103608, “Emerging RAS Inhibitors: Heterocyclic and Spirocyclic Compounds in Cancer Therapeutics” (ACS Med Chem Lett, 2025)

Test: Inhibition of NRAS G12D mutant (unknown origin) expressed in human THP-1 cells assessed as reduction in ERK phosphorylation incubated for 2 hrs by AlphaLISA SureFire Ultra assay
Type: cell-based
Conditions: THP-1, 2 h

IC50: 0.803 nM
SMILES: C[C@@H]1OC2=NC(c3cc(N)cc(F)c3OC(F)(F)F)=C(F)C3C(Cl)=C(CCN(C)C)N=C(C23)N2C[C@H]3CC[C@H](N3)[C@@H]12 (stereo partly specified)
